Measured values taken from ChEMBL document CHEMBL2346633, “Design, synthesis, and binding mode prediction of 2-pyridone-based selective CB2 receptor agonists” (Bioorg Med Chem, 2013).

Columns and labels:
Cannabinoid receptor 2 [1] = biological target: T1, Cannabinoid receptor 2 (Homo sapiens, UniProt P34972); assay: Displacement of [H3]-CP-55940 from human recombinant CB2 receptor expressed in CHO cells; type: cell-based
Cannabinoid receptor 2 [2] = biological target: T1, Cannabinoid receptor 2; assay: Agonist activity at human recombinant CB2 receptor expressed in CHO cells assessed as inhibition of forskolin-induced accumulation of cAMP; type: functional, cell-based
Cannabinoid receptor 1 = Cannabinoid receptor 1 (Homo sapiens, UniProt P21554); assay: Displacement of [H3]-CP-55940 from human recombinant CB1 receptor expressed in CHO cells; type: cell-based
Sequence of Cannabinoid receptor 1 (P21554 whole entry, looked up): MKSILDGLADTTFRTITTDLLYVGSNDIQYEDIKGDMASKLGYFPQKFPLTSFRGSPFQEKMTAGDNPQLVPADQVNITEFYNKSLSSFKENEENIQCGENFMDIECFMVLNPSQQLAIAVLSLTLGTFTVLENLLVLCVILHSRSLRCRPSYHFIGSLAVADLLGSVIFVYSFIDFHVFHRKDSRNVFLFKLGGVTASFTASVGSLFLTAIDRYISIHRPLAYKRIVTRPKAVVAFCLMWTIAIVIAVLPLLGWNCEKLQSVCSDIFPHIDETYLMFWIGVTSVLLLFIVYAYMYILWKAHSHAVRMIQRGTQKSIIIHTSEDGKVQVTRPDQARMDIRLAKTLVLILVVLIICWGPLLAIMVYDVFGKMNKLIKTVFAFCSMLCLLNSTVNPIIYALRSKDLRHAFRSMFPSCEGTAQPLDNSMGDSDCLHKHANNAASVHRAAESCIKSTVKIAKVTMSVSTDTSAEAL

Homo sapiens = species: Homo sapiens; assay: Selectivity ratio of Ki for human recombinant CB1 receptor to Ki for human recombinant CB2 receptor

T1 sequence (P34972 whole entry): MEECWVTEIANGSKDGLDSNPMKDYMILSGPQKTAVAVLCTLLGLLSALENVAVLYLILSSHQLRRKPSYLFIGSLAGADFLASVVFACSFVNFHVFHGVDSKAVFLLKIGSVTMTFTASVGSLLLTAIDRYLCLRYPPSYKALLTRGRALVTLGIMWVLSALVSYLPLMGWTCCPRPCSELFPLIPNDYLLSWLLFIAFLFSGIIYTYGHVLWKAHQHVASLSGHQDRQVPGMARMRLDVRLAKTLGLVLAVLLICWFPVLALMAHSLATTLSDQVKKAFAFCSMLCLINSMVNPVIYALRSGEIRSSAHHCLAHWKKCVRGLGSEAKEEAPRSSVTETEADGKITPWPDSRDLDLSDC

SMILES	Ki (Cannabinoid receptor 2 [1])	IC50 (Cannabinoid receptor 2 [2])	Ki (Cannabinoid receptor 1)	Ratio Ki (Homo sapiens)
CCCCn1cc(C)cc(Oc2nc3ccccc3o2)c1=S	236 nM	–	–	–
CCCCn1c(C)c(C)cc(NC(=O)c2ccccc2C)c1=O	–	13 nM	390 nM	–
CCCCn1ccc(C)c(Oc2nc3ccccc3o2)c1=S	235 nM	–	–	–
CCCn1c(C)c(C)cc(Oc2nc3ccccc3o2)c1=S	276 nM	–	–	–
CCCCn1cccc(Oc2nc3ccccc3o2)c1=S	490 nM	–	–	–
CCCCn1c(C)c(C)cc(NC(=O)Cc2ccccc2)c1=O	1310 nM	–	> 5000 nM	–
CCCCn1c(C)c(C)cc(NC(C)=O)c1=O	> 5000 nM	–	> 5000 nM	–
CCCCCCn1c(C)c(C)cc(Oc2nc3ccccc3o2)c1=S	609 nM	–	–	–
CCCCn1c(C)c(C)cc(NC(=O)c2ccc(C)cc2)c1=O	72 nM	–	854 nM	–
CCCCn1c(C)c(C)cc(NC(=O)c2cccc3ccccc23)c1=O	12 nM	–	19 nM	1.6
CN1CCCCC1Cn1cc(C(=O)c2cc([N+](=O)[O-])ccc2I)c2ccccc21 (stereo unspecified)	–	–	–	80
CCCCCn1c(C)c(C)cc(Oc2nc3ccccc3o2)c1=S	214 nM	–	–	–
CCCCn1c(C)c(C)cc(NC(=O)c2cccc(C)c2)c1=O	42 nM	–	343 nM	–
CCCCn1c(C)c(C)cc(NC(=O)c2ccc3ccccc3c2)c1=O	768 nM	–	> 5000 nM	–
CCCCn1c(C)c(C)cc(NC(=O)c2ccccc2F)c1=O	88 nM	–	617 nM	–
CCn1c(C)c(C)cc(Oc2nc3ccccc3o2)c1=S	3850 nM	–	–	–
CCCCn1c(C)c(C)cc(NC(=O)c2ccccc2Cl)c1=O	–	–	391 nM	–
CCCCn1c(C)c(C)cc(Oc2nc3ccccc3o2)c1=O	976 nM	–	–	–
CCN1C(=O)C(Sc2nc3ccccc3o2)c2ccccc2C1C (stereo unspecified)	42 nM	–	> 5000 nM	–
CCCCn1c(C)c(C)cc(NC(=O)c2ccccc2)c1=O	89 nM	–	1380 nM	–
